Data on three compounds can be found in patent US20240108644A1, “TUMOR IMMUNOTHERAPY” (The Trustees of Columbia University in the City of New York, priority 2021, published 2024).

Test [1] deals with human tumor Tregs (TI-Tregs). Briefly: viability of sorted tumor Tregs vs peripheral Tregs at peripheral-Treg EC20 dose. The format is cell-based. Particulars: at peripheral-Treg EC20 (IC20) dose; TI-Tregs from clear cell renal carcinoma expanded ex vivo. The procedure: To reduce study complexity and cost, the inventors first assessed the effect of a library of 1,554 FDA-approved and investigational compounds on human-derived P-Treg viability at a single, relatively large concentration (5 μM). For this screen, human P-Tregs were flow sorted, expanded ex vivo, and drug treated in a 96-well plate format (FIG. 6A). The inventors then selected 195 compounds that inhibited P-Treg viability ≥60% (FIG. 6B). To further reduce the number of candidate drugs, the inventors then generated 10-point drug response curves to identify the 48 h EC20 concentration of the 195 compounds, then selected a repertoire of 86 compounds with the lowest EC20 for efficient perturbational profile analysis in a 96-well format, when considering inclusion of vehicle controls (DMSO). As previously reported (Bush et al., 2017; Douglass et al., 2020), the 48 h EC20 (maximum sublethal) concentration was selected to effectively assess the 24 h drug mechanism of action, while reducing confounding effects arising from activation of cell stress or death pathways. Finally, the EC20 concentration of each compound was then used to perturb TI-Tregs flow-sorted from a chemo-naïve human clear cell carcinoma specimen and expanded ex vivo, into 96-well plates, followed by RNA-seq profiling using the fully automated PLATE-Seq technology (Bush et al., 2017; Douglass et al., 2020). Viability, as well as perturbational RNA-seq profiles of TI-Tregs were collected (FIGS. 6C-D). […]

Test [2] concerns TI-Treg MR proteins (17-MR protein signature). Briefly: PLATE-Seq perturbational RNA-seq of TI-Tregs with VIPER / OncoTreat analysis. The format is cell-based, human. The settings on record: for patient-by-patient inhibition of TI-Treg vs P-Treg MR activity (OncoTreat): individual TI- vs. P-Treg signatures of all 36 patients. The procedure:
To reduce study complexity and cost, the inventors first assessed the effect of a library of 1,554 FDA-approved and investigational compounds on human-derived P-Treg viability at a single, relatively large concentration (5 μM). For this screen, human P-Tregs were flow sorted, expanded ex vivo, and drug treated in a 96-well plate format (FIG. 6A). The inventors then selected 195 compounds that inhibited P-Treg viability ≥60% (FIG. 6B). To further reduce the number of candidate drugs, the inventors then generated 10-point drug response curves to identify the 48 h EC20 concentration of the 195 compounds, then selected a repertoire of 86 compounds with the lowest EC20 for efficient perturbational profile analysis in a 96-well format, when considering inclusion of vehicle controls (DMSO). As previously reported (Bush et al., 2017; Douglass et al., 2020), the 48 h EC20 (maximum sublethal) concentration was selected to effectively assess the 24 h drug mechanism of action, while reducing confounding effects arising from activation of cell stress or death pathways. Finally, the EC20 concentration of each compound was then used to perturb TI-Tregs flow-sorted from a chemo-naïve human clear cell carcinoma specimen and expanded ex vivo, into 96-well plates, followed by RNA-seq profiling using the fully automated PLATE-Seq technology (Bush et al., 2017; Douglass et al., 2020). Viability, as well as perturbational RNA-seq profiles of TI-Tregs were collected (FIGS. 6C-D). By using the differential protein activity signature in drug- vs. vehicle control-treated TI-Tregs, we identified the compounds capable of inducing the most statistically significant inactivation of TI-Treg-specific MR proteins (OncoTreat algorithm (Alvarez et al., 2018). From this analysis, 32 compounds were nominated as statistically significant inhibitors of the 17-MR protein signature (FIG. 7B), seven of which preferentially depleted TI-Treg vs. P-Treg viability in vitro (FIGS. 6C-D), and which were also found to inhibit patient-by-patient TI-Treg vs P-Treg MRs across all tumor types and nearly all patients (FIG. 6E).
Wells of drug-treated Tregs were RNA-Sequenced and each normalized with viperSignature against the internal DMSO-control wells on the same PLATE. VIPER was run on the normalized gene expression using the T-cell ARACNe network inferred from sorted bulk-RNA-Sequencing clinical data. Drugs were ranked on their overall inversion across patients of the 17-gene Master Regulator signature previously identified and validated by CRISPR (FIG. 7B), as well as on their patient-by-patient inversion of Tumor-Treg vs Peripheral-Treg protein activity signature by OncoTreat (FIG. 6E).

The subject of test [3] is MC38 syngeneic tumor model. The test is described as follows: MC38 tumor growth and survival in immune-competent C57BL/6J mice. The format is in vivo.
Method: 10 C57BL/6J mice per treatment arm were implanted with subcutaneous MC38 tumor cells. Treatment was initiated after 12 days of initial tumor growth, at which point mice were monitored for tumor volume until exceeding 1000 mm^3 or ulceration exceeding a diameter of 5 mm. […] Floxuridine and triapine were IP daily from day 12-18 at 1 mg/kg and 5 mg/kg, respectively, also reflecting 1/10th the standard murine dose. Mice receiving anti-PD-1 were administered anti-PD-1 IP on days 12, 15, and 18.
The next test deals with MC38 tumors. Briefly: MC38 tumor growth and survival in immune-deficient NSG mice. Type of test: in vivo. The procedure: To assess whether low-dose gemcitabine effects were immune-mediated, we performed parallel dose titrations in immune-competent C57BL/6J mice and severely immune-deficient NSG (NOD.Cg-Prkdc^scid Il2rg^tm1Wj1/SzJ) mice lacking both innate and adaptive immunity.
To test whether immune-dependent activity could be observed in this range of concentrations, we dosed cohorts of mice with 1-10 mg/kg gemcitabine, with an additional cohort of C57BL/6J mice receiving anti-PD-1 in combination.
To further assess the doses at which gemcitabine inhibits tumor growth and the immune-mediated effects of gemcitabine, the inventors performed parallel dose titrations of Gem in immune-competent C57BL/6J mice and immune-deficient NSG (NOD.Cg-Prkdc^scid Il2rg^tm1Wjl/SzJ) mice, administering doses ranging from 0.12 mg/kg up to 120 mg/kg as shown in FIGS. 4D-E. At least 5 mice were treated per treatment arm. Doses were administered IP on days 12, 15, and 18, and treatment response was assessed by and Kaplan-Meier test (FIG. 8E).

Test [4] has as its system TRC3 cluster Tregs (enriched for TI-Treg MRs). Briefly: scRNA-seq of MC38 tumor- and spleen-derived Tregs after gemcitabine. Type of test: in vivo, FoxP3Yfp-Cre mice. The settings on record: 24 hours after single 12 mg/kg dose.

Entries after “also recorded” stand apart in the source; their conditions may differ.

As to `O=c1[nH]c(=O)n([C@H]2C[C@H](O)[C@@H](CO)O2)cc1F` [floxuridine], the “differential TI-Treg vs. P-Treg viability reduction (toxicity)” value in test [1] is on record as “among the top 6 inducing the most significant differential TI- vs. P-Treg viability reduction”. Besides, the “patient-by-patient inhibition of TI-Treg vs P-Treg MR activity (OncoTreat)” value in test [2] is recorded as “among the seven most significant TI-Treg MR activity inhibitors”. In addition, the tumor growth inhibition entry in test [3] (floxuridine 1 mg/kg IP daily day 12-18, alone or with anti-PD-1) was “gemcitabine was the only treatment found to significantly inhibit tumor growth”.

Consider `Nc1ccn([C@@H]2O[C@H](CO)[C@@H](O)C2(F)F)c(=O)n1` [gemcitabine], for which, in test [1], the “differential TI-Treg vs. P-Treg viability reduction (toxicity)” value is on record as “preferential cytotoxic capacity against TI-Tregs; also recorded: preferentially toxic to TI-Tregs; also recorded: among the top 6 inducing the most significant differential TI- vs. P-Treg viability reduction”. The “inhibition (down-regulation) of the 17-MR TI-Treg protein activity signature” value in test [2] (TI-Tregs treated at EC20, 24 h, drug vs DMSO, VIPER protein activity) is given as “inhibits transcriptional activity of TI-Treg MRs”. The “patient-by-patient inhibition of TI-Treg vs P-Treg MR activity (OncoTreat)” value in test [2] is “among the seven most significant TI-Treg MR activity inhibitors”. Besides, the “efficacy in dose titration” value is “efficacy was lost” in test [3] (between 12 mg/kg and 1.2 mg/kg, C57BL/6J); “efficacy was lost” in the test on MC38 tumors (between 12 mg/kg and 1.2 mg/kg, NSG). In addition, the “dose range found to be immunogenic” value in test [3] (dosed Q3D) fell in the range of 3 to 10 mg/kg. Besides, the “advantage in C57BL/6 vs NSG mice” value in test [3] (gemcitabine 1.2 mg/kg, p=0.09) was “trending but non-significant advantage”. The “survival C57BL/6J vs. NSG” value in test [3] (gemcitabine 10 mg/kg, p=0.253) is “trending survival advantage”. In addition, the “tumor growth kinetics vs vehicle” value in test [3] (gemcitabine 12 mg/kg IP days 12, 15, 18, late stage MC38, p=0.003) is given as “significantly inhibit tumor growth; also recorded: significant reduction in growth kinetics”. Moreover, in test [3] (gemcitabine 12 mg/kg IP days 12, 15, 18, late stage MC38, p=0.006), the survival vs vehicle result is given as “prolongation of survival”. In addition, the “tumor growth relative to vehicle control” value in test [3] (gemcitabine 120 mg/kg, C57BL/6J, p<0.001 by Cox regression) is given as “inhibited tumor growth”; in the test with MC38 tumors (gemcitabine 120 mg/kg, NSG, p<0.001 by Cox regression), “inhibited tumor growth”. Moreover, the “difference between C57BL/6J and NSG strains” value in test [3] (gemcitabine 120 mg/kg, p=0.19) is given as “no significant difference”. Moreover, the “activity in NSG mice” value with MC38 tumors (gemcitabine 3 mg/kg, p=0.84) is on record as “lack any activity”. Moreover, the TRC1 occupancy entry in test [4] was “proportional increase”. Moreover, the “change of TRC3 occupancy in spleen population” value in test [4] (spleen) was “virtually no change”. In addition, the “TRC3 cluster frequency among TI-Tregs” value in test [4] (tumor, vehicle 30.1%, p=1.51e-20) worked out at 14.9%.

Take `NC(=S)N/N=C/c1ncccc1N` [triapine]: in test [1], the “differential TI-Treg vs. P-Treg viability reduction (toxicity)” value is recorded as “among the top 6 inducing the most significant differential TI- vs. P-Treg viability reduction”. For the same compound, in test [2], the “patient-by-patient inhibition of TI-Treg vs P-Treg MR activity (OncoTreat)” value was “among the seven most significant TI-Treg MR activity inhibitors”. Moreover, in test [3] (triapine 5 mg/kg IP daily day 12-18, alone or with anti-PD-1), the tumor growth inhibition entry is given as “gemcitabine was the only treatment found to significantly inhibit tumor growth”.
